Assay results as given in US20250179049A1, “SALTS OF HETEROCYCLIC INHIBITORS OF MONOCARBOXYLATE TRANSPORTER 4 FOR THE TREATMENT OF DISEASE” (Vettore, LLC, priority 2022, published 2025).
Where a name gives a salt, the structure may show the parent alone.

Experiments:
[1] = Dog pharmacokinetics, oral gavage suspension; format: in vivo, beagle dogs; details: for MRT last / half-life: dog, plasma; for MRT last / half-life / ClF: male beagle dogs, oral suspension, mean
Description: In a follow-up study, the pharmacokinetics of tris salt Compound 1 were investigated via oral gavage of a 0.5% methylcellulose in saline formulation. Two Groups of animals were tested. In Group 1, three male beagle dogs were administered a single dose of 3 mg/kg Compound 1 tris salt. In Group 2, three male beagle dogs were administered a single dose of 30 mg/kg Compound 1 tris salt. Plasma was collected pre-dose, and at 0.5, 1, 2, 4, 8, 12 and 24 hours post-dose via puncture of peripheral veins.
(§1) LC MS-MS Analysis. Liquid Chromatography with tandem mass spectrometry was used to determine plasma concentrations of Compound 1 Free Acid and Compound 1 Tris Salt in plasma samples collected at prescribed time points. Instrumentation included YMC-Triart C18, S-5 μm (50×2.1 mm) HPLC column, liquid chromatograph Shimadzu LC-30AD with communications bus module CBM-20A and Auto SIL-20AC HT; and a Triple Quad 5500 LC/MS/MS instrument. Tolbutamide was used as an internal standard.

beagle dogs [2] = assay: in vivo; details: both, dog, 28 days
Description: (§2) Compound 1 was administered to beagle dogs by oral gavage in a range finding study at doses of 30, 79, 240, or 790 mg/kg. […] Compound 1 was administered at doses of 10, 50, and 150 mg/kg/day in the pivotal repeat dose toxicity studies for 28 days.
(§3) Compound 1 tris salt was evaluated for safety in 7- and 28-day studies in rats and dogs. […] The NOAELs for this rat study were 120 mg/kg/day for males and 75 mg/kg/day for females. […] The NOAEL determined in the 28-day dog GLP study was 150 mg/kg/day. These correspond to human equivalent doses (HEDs) of: • Rat: 75 mg/kg×0.16=12 mg/kg • Dog: 150 mg/kg×0.54=81 mg/kg

in vivo = assay: in vivo; design: species or system beagle dogs; details: both sexes, beagle, dog
Description: as §2, §3

[3] = Dog pharmacokinetics, powder in capsule; format: in vivo, beagle dogs
Description: Groups, Dosing, and Collection. The pharmacokinetics of the free acid and the tris salt of Compound 1 administered by oral capsules was assessed in dogs. Three male beagle dogs were administered a single dose of 3 mg/kg Compound 1 free acid on Day 1 of the study, and a single dose of 3 mg/kg Compound 1 tris salt on Day 8 of the study. Plasma was collected pre-dose, and at 0.5, 1, 2, 4, 8, 12 and 24 hours post-dose via puncture of peripheral veins.
as §1

Sprague Dawley rats [4] = assay: Behavioral safety pharmacology study; format: in vivo; details: oral dose of up to 400 mg/kg, male rats (highest dose tested)
Description: (§4) The safety pharmacology of Compound 1 and its tris salt was evaluated in an in vitro human ether-à-go-go related gene (hERG) assay, a behavioral study in Sprague Dawley rats, and a respiratory and cardiovascular system assessment using electrocardiogram (ECG)-telemetered beagle dogs. […] Determination of the IC50 against the hERG channel was precluded due to potential cytotoxicity at doses >300 μM. […] Cardiovascular safety pharmacology assessments noted decreases in PR interval duration that were detected up to 9 hours post administration of Compound 1 and were usually dose related and associated with potential changes in heart rate. These changes were considered biologically insignificant due to their small magnitude (up to 10 msec compared to vehicle control), association with potential increases in heart rate, and the absence of correlated findings.

beagle dogs [5] = assay: Range finding toxicity study in dogs; format: in vivo
Description: as §2

[6] = system: primary human lung fibroblasts; assay: Fibroblast-to-myofibroblast transition; format: cell-based
Source text: The reduction of lung fibrosis upon MCT4 inhibition is coupled with changes in serum metabolites that indicates turnover of extracellular matrix protein and increased fatty acid oxidation.

Sprague Dawley rats [7] = assay: 28-day repeat-dose toxicity study in rats; format: in vivo; details: male, rat, in vivo, 400 mg/kg/day, 28 days
Description: Compound 1 was administered to Sprague Dawley rats by oral gavage at doses of 25, 75, and 250 mg/kg/day (females) and 40, 120, and 400 mg/kg/day (males) for 28 days. Compound 1-related mortality occurred in 8 of the 15 toxicity males administered 400 mg/kg/day beginning on Day 8 through 24. […] Target tissues included bone marrow, spleen, thymus, liver, lymph nodes, epididymides, seminal vesicles, prostate, testes, uterus, and ovaries.
as §3

hERG channel = hERG channel (Homo sapiens, UniProt Q12809); assay: in vitro hERG assay; format: cell-based; details: determination precluded by potential cytotoxicity at >300 μM; read-out: half maximal inhibitory concentration (IC50) against the hERG channel
Description: as §4

[8] = ADME: intravenous clearance and oral bioavailability; format: in vivo
Source text: The absorption, distribution, metabolism, and excretion properties of Compound 1 have been characterized in both in vitro and in vivo studies. Sensitive and selective bioanalytical methods have been developed and validated for rat and dog plasma. Following intravenous administration, the systemic clearance of Compound 1 in all species evaluated was considered low. Following oral administration, bioavailability was generally greater than 30% in the species evaluated. Initial studies utilized the Compound 1 free form. […] All Good Laboratory Practice (GLP) studies were performed using the Compound 1 tris salt form. Dose levels indicate Compound 1 free form equivalents unless otherwise noted.

beagle dogs [9] = assay: Respiratory and cardiovascular assessment in ECG-telemetered dogs; format: in vivo
Description: as §4

[10] = system: bleomycin-induced lung fibrosis; assay: Bleomycin-induced lung fibrosis model; format: in vivo, mice
Description: The reduction of lung fibrosis upon MCT4 inhibition is coupled with changes in serum metabolites that indicates turnover of extracellular matrix protein and increased fatty acid oxidation. […] The effects of Compound 1, alone or in combination with approved IPF drugs pirfenidone or nintedanib, were studied in the bleomycin-induced lung fibrosis model in therapeutic mode. Compound 1 was dosed at 3 mg/kg, BID; pirfenidone was dosed at 100 mg/kg, BID; and nintedanib was dosed at 50 mg/kg, QD, all via oral gavage.

[11] = male beagle dogs, powder in capsule, 3 mg/kg, mean
[12] = male, beagle, dog, plasma, po, 3 mg/kg, male beagle dogs, powder in capsule, mean

Chain of hERG channel (Q12809 whole entry): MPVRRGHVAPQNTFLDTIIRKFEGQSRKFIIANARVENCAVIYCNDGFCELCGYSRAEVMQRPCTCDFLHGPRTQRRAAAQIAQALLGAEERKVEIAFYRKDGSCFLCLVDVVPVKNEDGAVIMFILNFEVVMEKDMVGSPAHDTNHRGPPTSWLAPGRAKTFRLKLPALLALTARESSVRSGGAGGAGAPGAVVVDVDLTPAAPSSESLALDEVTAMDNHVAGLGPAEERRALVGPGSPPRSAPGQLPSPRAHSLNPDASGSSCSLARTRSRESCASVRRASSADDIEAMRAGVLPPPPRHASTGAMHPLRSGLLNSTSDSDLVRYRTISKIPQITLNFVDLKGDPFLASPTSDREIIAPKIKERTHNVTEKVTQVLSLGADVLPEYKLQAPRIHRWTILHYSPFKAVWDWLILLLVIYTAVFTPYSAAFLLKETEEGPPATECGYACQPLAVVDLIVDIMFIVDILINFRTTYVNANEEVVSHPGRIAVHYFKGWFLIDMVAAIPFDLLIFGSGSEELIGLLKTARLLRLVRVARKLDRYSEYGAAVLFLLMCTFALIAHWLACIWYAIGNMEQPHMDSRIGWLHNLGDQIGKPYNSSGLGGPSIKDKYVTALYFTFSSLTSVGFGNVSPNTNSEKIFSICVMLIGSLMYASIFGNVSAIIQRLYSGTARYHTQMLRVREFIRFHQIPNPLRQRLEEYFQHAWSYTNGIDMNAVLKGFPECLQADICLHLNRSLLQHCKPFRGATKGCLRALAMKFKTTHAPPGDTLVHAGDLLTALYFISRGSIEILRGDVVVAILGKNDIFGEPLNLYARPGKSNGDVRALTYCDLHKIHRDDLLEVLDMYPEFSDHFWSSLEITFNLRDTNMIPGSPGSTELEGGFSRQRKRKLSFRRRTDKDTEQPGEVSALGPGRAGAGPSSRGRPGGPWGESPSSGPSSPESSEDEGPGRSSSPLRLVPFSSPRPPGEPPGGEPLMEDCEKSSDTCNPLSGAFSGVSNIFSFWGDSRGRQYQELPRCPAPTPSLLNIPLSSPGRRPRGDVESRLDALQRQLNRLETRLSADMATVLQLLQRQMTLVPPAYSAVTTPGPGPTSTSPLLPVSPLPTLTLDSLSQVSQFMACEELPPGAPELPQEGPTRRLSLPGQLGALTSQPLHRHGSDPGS

CC(C)(OCc1cc(-c2cccc(OC3CCC3)c2)n(-c2ccccc2N2CCC2)n1)C(=O)O [Compound 1 tris salt, tris salt of 2-((1-(2-(azetidin-1-yl)phenyl)-5-(3-cyclobutoxyphenyl)-1H-pyrazol-3-yl)methoxy)-2-methylpropanoic acid]
MRT last ([1]; 3 mg/kg): 2.34 h
half-life ([1]; 3 mg/kg): 4.74 h
MRT last ([1]; 30 mg/kg): 3.81 h
half-life ([1]; 30 mg/kg): 3.69 h
Clinical symptoms ([1]; dogs, single 3 or 30 mg/kg oral gavage dose): No abnormal clinical symptoms were observed
ClF ([1]; 3 mg/kg): 602
ClF ([1]; 30 mg/kg): 547
Adverse effects (beagle dogs [2]): no Compound 1 tris salt-related adverse effects
Human equivalent dose of NOAEL at 28 days (in vivo; 150 mg/kg): 81 mg/kg
Half-life compared to free acid ([3]; dogs): lower
Mean residence time compared to free acid ([3]; dogs): increased
Total drug exposure across time (AUClast and AUCInf) compared to free acid ([3]; dogs, powder in capsule and suspension formulations): higher
ClF [3, 11]: 756
MRTlast [3, 11]: 7.89 h
T1/2 [3, 11]: 3.63 h

CC(C)(OCc1cc(-c2cccc(OC3CCC3)c2)n(-c2ccccc2N2CCC2)n1)C(=O)O [Compound 1, 2-((1-(2-(azetidin-1-yl)phenyl)-5-(3-cyclobutoxyphenyl)-1H-pyrazol-3-yl)methoxy)-2-methylpropanoic acid]
Behavioral effects (Sprague Dawley rats [4]): no Compound 1-related behavioral effects
Dose at which decreased thymus weights were observed (beagle dogs [5]; dogs): ≥ 240 mg/kg
Clinical observations (beagle dogs [5]; dogs, oral gavage 30, 79, 240, or 790 mg/kg, all dose levels): Watery feces and emesis were occasionally observed
Electrolyte changes (beagle dogs [5]; male dogs, 790 mg/kg): increased potassium and decreased sodium and chloride
Fibroblast-to-myofibroblast transition [6]: attenuates the fibroblast-to-myofibroblast transition
Production of alpha-smooth muscle actin (αSMA) [6]: reducing the production
Compound-related mortality (Sprague Dawley rats [7]): 8 of the 15
IC50 (hERG channel): > 300 µM
Systemic clearance ([8]; intravenous administration, all species evaluated): low
bioavailability ([8]; plasma, oral administration, species evaluated): > 30%
Time post administration at which decreases in PR interval duration were detected (beagle dogs [9]; dogs): up to 9 hours
Decrease in PR interval duration, magnitude (beagle dogs [9]; dogs, compared to vehicle control): up to 10 msec
Respiratory effects (beagle dogs [9]; oral dose of up to 150 mg/kg, dogs (highest dose tested)): no significant respiratory effects
Lung fibrosis ([10]; aged (>60 week) mice): reduced lung fibrosis
Lung lactate levels ([10]; aged (>60 week) mice): reduction in lung lactate levels
Lung fibrosis ([10]; bleomycin-induced mouse model of IPF): reduces lung fibrosis
Minimal efficacious dose ([10]; twice daily (BID), bleomycin-induced mouse model of IPF): 3 mg/kg
NOAEL at 28 days (in vivo): 150 mg/kg/day
Clinical symptoms ([3]; dogs, single 3 mg/kg oral capsule dose): No abnormal clinical symptoms were observed
ClF ([3]; male beagle dogs, powder in capsule, 3 mg/kg, mean, listed as Free Acid): 2505
MRT last [3, 12]: 5.39 h
half-life [3, 12]: 6.33 h
